Measurements as given in patent publication US12077503B2, “Substituted cyclic amides and their use as herbicides” (FMC CORPORATION, priority 2015, dated 2024).

What was measured:
Assay type in all cases: in vivo
[1] = test system: barnyardgrass (Echinochloa crus-galli); experiment: Test G Pre-Emergence Protocol; conditions: Echinochloa crus-galli, pre-emergence, 312 h, evaluated after 13 days; for pest or weed control at 15.625 g/ha: 15.625 g ai/ha, read-out: Barnyard grass damage rating (100=total damage to plant; 0=no damage to plant); for pest or weed control at 62.5 g/ha: 62.5 g ai/ha, 100=total damage to plant, 0=no damage to plant, read-out: plant damage rating, Barnyardgrass; for pest or weed control at 250 g/ha: 250 g ai/ha, read-out: Barnyardgrass damage rating (100=total damage to plant; 0=no damage to plant)
Outline: (§1)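 Spraying took place one day after sowing, at 15.625, 62.5 or 250 g/ha, using an acetone/water (50:50) spray solution containing 0.5% Tween 20. Plants were kept under glasshouse conditions (24/16 °C, 14 h light, 65% humidity, watered twice daily), and injury was rated 0–100 at day 13.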

corn (Zea mays) [2] = experiment: Test G Pre-Emergence Protocol; conditions: Zea mays, pre-emergence, 312 h, evaluated after 13 days; for plant injury at 15.625 g/ha: 15.625 g ai/ha; for plant injury at 15.625 g/ha / plant injury at 250 g/ha: read-out: Corn damage rating (100=total damage to plant; 0=no damage to plant); for plant injury at 62.5 g/ha: 62.5 g ai/ha, 100=total damage to plant, 0=no damage to plant, read-out: plant damage rating, Corn; for plant injury at 250 g/ha: 250 g ai/ha
Outline: as §1

[3] = test system: giant foxtail (Setaria faberi); experiment: Test G Pre-Emergence Protocol; conditions: Setaria faberi, pre-emergence, 312 h, evaluated after 13 days; for pest or weed control at 15.625 g/ha: 15.625 g ai/ha; for pest or weed control at 15.625 g/ha / pest or weed control at 250 g/ha: read-out: Foxtail, Giant damage rating (100=total damage to plant; 0=no damage to plant); for pest or weed control at 62.5 g/ha: 62.5 g ai/ha, 100=total damage to plant, 0=no damage to plant, read-out: plant damage rating, Foxtail, Giant; for pest or weed control at 250 g/ha: 250 g ai/ha
Outline: as §1

[4] = test system: ivy-leaved morning glory (Ipomoea hederacea); experiment: Test G Pre-Emergence Protocol; conditions: Ipomoea, pre-emergence, 312 h, evaluated after 13 days; for pest or weed control at 15.625 g/ha: 15.625 g ai/ha, read-out: Morning-glory, Ivy-leaved damage rating (100=total damage to plant; 0=no damage to plant); for pest or weed control at 62.5 g/ha: 62.5 g ai/ha, 100=total damage to plant, 0=no damage to plant, read-out: plant damage rating, Morningglory, Ivy-leaved; for pest or weed control at 250 g/ha: 250 g ai/ha, read-out: Morningglory, Ivy-leaved damage rating (100=total damage to plant; 0=no damage to plant)
Outline: as §1

[5] = test system: redroot pigweed (Amaranthus retroflexus); experiment: Test G Pre-Emergence Protocol; conditions: Amaranthus retroflexus, pre-emergence, 312 h, evaluated after 13 days; for pest or weed control at 15.625 g/ha: 15.625 g ai/ha; for pest or weed control at 15.625 g/ha / pest or weed control at 250 g/ha: read-out: Pigweed, Redroot damage rating (100=total damage to plant; 0=no damage to plant); for pest or weed control at 62.5 g/ha: 62.5 g ai/ha, 100=total damage to plant, 0=no damage to plant, read-out: plant damage rating, Pigweed, Redroot; for pest or weed control at 250 g/ha: 250 g ai/ha
Outline: as §1

[6] = test system: velvetleaf (Abutilon theophrasti); experiment: Test G Pre-Emergence Protocol; conditions: Abutilon theophrasti, pre-emergence, 312 h, evaluated after 13 days; for pest or weed control at 15.625 g/ha: 15.625 g ai/ha; for pest or weed control at 15.625 g/ha / pest or weed control at 250 g/ha: read-out: Velvetleaf damage rating (100=total damage to plant; 0=no damage to plant); for pest or weed control at 62.5 g/ha: 62.5 g ai/ha, 100=total damage to plant, 0=no damage to plant, read-out: plant damage rating, Velvetleaf; for pest or weed control at 250 g/ha: 250 g ai/ha
Outline: as §1

[7] = test system: barnyardgrass (Echinochloa crus-galli); experiment: Test G Post-Emergence Protocol; conditions: Echinochloa crus-galli, post-emergence, 312 h; for pest or weed control at 15.625 g/ha: 15.625 g ai/ha, evaluated after 13 days (100=total damage to plant; 0=no damage to plant), read-out: Barnyardgrass damage rating; for pest or weed control at 62.5 g/ha: 62.5 g ai/ha, read-out: Barnyardgrass damage rating (100=total damage to plant; 0=no damage to plant); for pest or weed control at 62.5 g/ha / pest or weed control at 250 g/ha: evaluated after 13 days; for pest or weed control at 250 g/ha: 250 g ai/ha, read-out: damage to plant, Barnyardgrass (100=total damage to plant; 0=no damage to plant)
Outline: (§2)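 Pot-grown seedlings, 8 days old, raised in a glasshouse at 24/16 °C day/night with 14 h light and 65% humidity, were sprayed post-emergence with test compound in acetone/water (50:50) plus 0.5% Tween 20 at 15.625, 62.5 or 250 g/ha. Damage was scored visually 13 days later on a 0–100 scale (100 = total damage).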

corn (Zea mays) [8] = experiment: Test G Post-Emergence Protocol; conditions: Zea mays, post-emergence, 312 h; for plant injury at 15.625 g/ha: 15.625 g ai/ha, evaluated after 13 days (100=total damage to plant; 0=no damage to plant), read-out: Corn damage rating; for plant injury at 62.5 g/ha: 62.5 g ai/ha, read-out: Corn damage rating (100=total damage to plant; 0=no damage to plant); for plant injury at 62.5 g/ha / plant injury at 250 g/ha: evaluated after 13 days; for plant injury at 250 g/ha: 250 g ai/ha, read-out: damage to plant, Corn (100=total damage to plant; 0=no damage to plant)
Outline: as §2

[9] = test system: giant foxtail (Setaria faberi); experiment: Test G Post-Emergence Protocol; conditions: Setaria faberi, post-emergence, 312 h; for pest or weed control at 15.625 g/ha: 15.625 g ai/ha, evaluated after 13 days (100=total damage to plant; 0=no damage to plant), read-out: Foxtail, Giant damage rating; for pest or weed control at 62.5 g/ha: 62.5 g ai/ha, read-out: Foxtail, Giant damage rating (100=total damage to plant; 0=no damage to plant); for pest or weed control at 62.5 g/ha / pest or weed control at 250 g/ha: evaluated after 13 days; for pest or weed control at 250 g/ha: 250 g ai/ha, read-out: damage to plant, Foxtail, Giant (100=total damage to plant; 0=no damage to plant)
Outline: as §2

[10] = test system: ivy-leaved morning glory (Ipomoea hederacea); experiment: Test G Post-Emergence Protocol; conditions: Ipomoea, post-emergence, 312 h; for pest or weed control at 15.625 g/ha: 15.625 g ai/ha, evaluated after 13 days (100=total damage to plant; 0=no damage to plant), read-out: Morningglory, Ivy-leaved damage rating; for pest or weed control at 62.5 g/ha: 62.5 g ai/ha, read-out: Morningglory, Ivy-leaved damage rating (100=total damage to plant; 0=no damage to plant); for pest or weed control at 62.5 g/ha / pest or weed control at 250 g/ha: evaluated after 13 days; for pest or weed control at 250 g/ha: 250 g ai/ha, read-out: damage to plant, Morningglory, Ivy-leaved (100=total damage to plant; 0=no damage to plant)
Outline: as §2

[11] = test system: redroot pigweed (Amaranthus retroflexus); experiment: Test G Post-Emergence Protocol; conditions: Amaranthus retroflexus, post-emergence, 312 h; for pest or weed control at 15.625 g/ha: 15.625 g ai/ha, evaluated after 13 days (100=total damage to plant; 0=no damage to plant), read-out: Pigweed, Redroot damage rating; for pest or weed control at 62.5 g/ha: 62.5 g ai/ha, read-out: Pigweed, Redroot damage rating (100=total damage to plant; 0=no damage to plant); for pest or weed control at 62.5 g/ha / pest or weed control at 250 g/ha: evaluated after 13 days; for pest or weed control at 250 g/ha: 250 g ai/ha, read-out: damage to plant, Pigweed, Redroot (100=total damage to plant; 0=no damage to plant)
Outline: as §2

[12] = test system: velvetleaf (Abutilon theophrasti); experiment: Test G Post-Emergence Protocol; conditions: Abutilon theophrasti, post-emergence, 312 h; for pest or weed control at 15.625 g/ha: 15.625 g ai/ha, evaluated after 13 days (100=total damage to plant; 0=no damage to plant), read-out: Velvetleaf damage rating; for pest or weed control at 62.5 g/ha: 62.5 g ai/ha, read-out: Velvetleaf damage rating (100=total damage to plant; 0=no damage to plant); for pest or weed control at 62.5 g/ha / pest or weed control at 250 g/ha: evaluated after 13 days; for pest or weed control at 250 g/ha: 250 g ai/ha, read-out: damage to plant, Velvetleaf (100=total damage to plant; 0=no damage to plant)
Outline: as §2

Row | Compound | pest or weed control at 15.625 g/ha [1] [%] | pest or weed control at 62.5 g/ha [1] [%] | pest or weed control at 250 g/ha [1] [%] | plant injury at 15.625 g/ha (corn (Zea mays) [2]) [%] | plant injury at 62.5 g/ha (corn (Zea mays) [2]) [%] | plant injury at 250 g/ha (corn (Zea mays) [2]) [%] | pest or weed control at 15.625 g/ha [3] [%] | pest or weed control at 62.5 g/ha [3] [%] | pest or weed control at 250 g/ha [3] [%] | pest or weed control at 15.625 g/ha [4] [%] | pest or weed control at 62.5 g/ha [4] [%] | pest or weed control at 250 g/ha [4] [%] | pest or weed control at 15.625 g/ha [5] [%] | pest or weed control at 62.5 g/ha [5] [%] | pest or weed control at 250 g/ha [5] [%] | pest or weed control at 15.625 g/ha [6] [%] | pest or weed control at 62.5 g/ha [6] [%] | pest or weed control at 250 g/ha [6] [%] | pest or weed control at 15.625 g/ha [7] [%] | pest or weed control at 62.5 g/ha [7] [%] | other results
1 | CN1C[C@@H](c2ccc(C(F)(F)F)cc2)[C@H](C(=O)Nc2ccnc(Cl)c2)C1=O (racemic) [Compound 1571] | 0 | 0 | 0 | 0 | 0 | 0 | 0 | 0 | 20 | 0 | 0 | 0 | 0 | 0 | 0 | 0 | 0 | 0 | 0 | 0 | pest or weed control at 250 g/ha [7]: 0%; plant injury at 15.625 g/ha (corn (Zea mays) [8]): 0%; plant injury at 62.5 g/ha (corn (Zea mays) [8]): 0%; plant injury at 250 g/ha (corn (Zea mays) [8]): 0%; pest or weed control at 15.625 g/ha [9]: 0%; pest or weed control at 62.5 g/ha [9]: 0%; pest or weed control at 250 g/ha [9]: 0%; pest or weed control at 15.625 g/ha [10]: 0%; pest or weed control at 62.5 g/ha [10]: 0%; pest or weed control at 250 g/ha [10]: 0%; pest or weed control at 15.625 g/ha [11]: 0%; pest or weed control at 62.5 g/ha [11]: 0%; pest or weed control at 250 g/ha [11]: 0%; pest or weed control at 15.625 g/ha [12]: 0%; pest or weed control at 62.5 g/ha [12]: 0%; pest or weed control at 250 g/ha [12]: 0%
2 | CN1C[C@@H](c2ccc(C(F)(F)F)cc2)[C@H](C(=O)Nc2ccn[nH]2)C1=O (racemic) [Compound 1573] | 0 | 0 | 0 | 0 | 0 | 0 | 0 | 0 | 0 | 0 | 0 | 0 | 0 | 0 | 0 | 0 | 0 | 0 | 0 | 0 | pest or weed control at 250 g/ha [7]: 0%; plant injury at 15.625 g/ha (corn (Zea mays) [8]): 0%; plant injury at 62.5 g/ha (corn (Zea mays) [8]): 0%; plant injury at 250 g/ha (corn (Zea mays) [8]): 0%; pest or weed control at 15.625 g/ha [9]: 0%; pest or weed control at 62.5 g/ha [9]: 0%; pest or weed control at 250 g/ha [9]: 0%; pest or weed control at 15.625 g/ha [10]: 0%; pest or weed control at 62.5 g/ha [10]: 0%; pest or weed control at 250 g/ha [10]: 0%; pest or weed control at 15.625 g/ha [11]: 0%; pest or weed control at 62.5 g/ha [11]: 0%; pest or weed control at 250 g/ha [11]: 0%; pest or weed control at 15.625 g/ha [12]: 0%; pest or weed control at 62.5 g/ha [12]: 0%; pest or weed control at 250 g/ha [12]: 0%
